The values that follow come from ChEMBL document CHEMBL3832067, “DailyMed|setid=d28bec8f-762e-4f05-a20d-96a42970d6a7 | Estradiol - estradiol patch|Mylan Pharmaceuticals Inc”.

A short description of series [1]: (§1) Evaluation of pharmacokinetic parameters for Estradiol after multiple topical applying Estradiol transdermal systems to the abdomen or the buttocks of 17 healthy, postmenopausal female subjects. In kind it is ADME, organism-based. The arrangement: dose 0.075 mg/day, dose 0.1 mg/day, dose 0.0375 mg/day, dose 0.05 mg/day, route topical to abdomen, route topical to buttocks. To be noted: human, in vivo, topical or ocular; dose 0.05 mg/day, dosed compound id 17, dosed compound name ESTRADIOL, gender female, regimen Multiple dose, route topical to abdomen, tissue Plasma; read-out: Cmin(80hr).

In series [2] the test system is Homo sapiens. The description is as §1. Format: ADME, organism-based. To be noted: in vivo, topical_or_ocular, dosed compound id 17, dosed compound name ESTRADIOL, gender female, regimen Multiple dose, tissue Plasma. The arrangement: dose 0.075 mg/day, dose 0.1 mg/day, dose 0.0375 mg/day, dose 0.05 mg/day, route topical to abdomen, route topical to buttocks.
Setting [3] is: dose 0.0375 mg/day, route topical to abdomen.
Where [4] appears, read: dose 0.075 mg/day, route topical to abdomen.
The mark [5] stands for this setting: dose 0.1 mg/day, route topical to abdomen.
[6] abbreviates: dose 0.1 mg/day, route topical to buttocks.

Take `C[C@]12CC[C@@H]3c4ccc(O)cc4CC[C@H]3[C@@H]1CC[C@@H]2O` [ESTRADIOL]: the concentration at 80 h in series [1] was 0.041 ng/mL. In addition, the Cavg came to 0.034 ng/mL in series [2] (setting [3]); 0.057 ng/mL in series [2] (dose 0.05 mg/day, route topical to abdomen); 0.072 ng/mL in series [2] (setting [4]); 0.089 ng/mL in series [2] (setting [5]); 0.104 ng/mL in series [2] (setting [6]). Moreover, the “Cmin(84hr)” value in series [2] (setting [3]) was 0.03 ng/mL; in series [2] (setting [4]) it was 0.06 ng/mL; in series [2] (setting [5]), 0.09 ng/mL; in series [2] (setting [6]) it was 0.085 ng/mL.
